The source made the active and inactive calls.
Key:
[1] = biological target: Major prion protein (Homo sapiens, UniProt P04156); assay type: functional, cell-based
[2] = cells
[3] = cells; remark: listed apart in the source
[4] = biological target: T1, Oxysterols receptor LXR-beta (Homo sapiens, UniProt P55055); assay type: functional, cell-based
T1 sequence (P55055 whole entry): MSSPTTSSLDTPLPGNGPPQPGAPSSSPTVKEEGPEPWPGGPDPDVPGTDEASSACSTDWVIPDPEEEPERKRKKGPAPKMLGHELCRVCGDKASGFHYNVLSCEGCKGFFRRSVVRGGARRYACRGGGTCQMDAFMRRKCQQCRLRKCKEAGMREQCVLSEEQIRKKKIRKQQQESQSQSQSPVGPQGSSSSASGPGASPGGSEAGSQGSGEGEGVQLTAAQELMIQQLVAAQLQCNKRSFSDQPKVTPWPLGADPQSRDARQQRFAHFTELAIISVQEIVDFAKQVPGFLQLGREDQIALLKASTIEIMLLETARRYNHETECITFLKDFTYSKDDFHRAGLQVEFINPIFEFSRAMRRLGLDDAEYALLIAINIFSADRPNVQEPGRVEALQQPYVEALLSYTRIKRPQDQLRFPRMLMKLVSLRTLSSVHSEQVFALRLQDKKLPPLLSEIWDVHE

[5] = biological target: T1, Oxysterols receptor LXR-beta; assay type: functional, cell-based; remark: listed apart in the source
[6] = biological target: T2, Histone-lysine N-methyltransferase NSD2 (Homo sapiens, UniProt O96028); assay type: biochemical
T2 sequence (O96028 whole entry): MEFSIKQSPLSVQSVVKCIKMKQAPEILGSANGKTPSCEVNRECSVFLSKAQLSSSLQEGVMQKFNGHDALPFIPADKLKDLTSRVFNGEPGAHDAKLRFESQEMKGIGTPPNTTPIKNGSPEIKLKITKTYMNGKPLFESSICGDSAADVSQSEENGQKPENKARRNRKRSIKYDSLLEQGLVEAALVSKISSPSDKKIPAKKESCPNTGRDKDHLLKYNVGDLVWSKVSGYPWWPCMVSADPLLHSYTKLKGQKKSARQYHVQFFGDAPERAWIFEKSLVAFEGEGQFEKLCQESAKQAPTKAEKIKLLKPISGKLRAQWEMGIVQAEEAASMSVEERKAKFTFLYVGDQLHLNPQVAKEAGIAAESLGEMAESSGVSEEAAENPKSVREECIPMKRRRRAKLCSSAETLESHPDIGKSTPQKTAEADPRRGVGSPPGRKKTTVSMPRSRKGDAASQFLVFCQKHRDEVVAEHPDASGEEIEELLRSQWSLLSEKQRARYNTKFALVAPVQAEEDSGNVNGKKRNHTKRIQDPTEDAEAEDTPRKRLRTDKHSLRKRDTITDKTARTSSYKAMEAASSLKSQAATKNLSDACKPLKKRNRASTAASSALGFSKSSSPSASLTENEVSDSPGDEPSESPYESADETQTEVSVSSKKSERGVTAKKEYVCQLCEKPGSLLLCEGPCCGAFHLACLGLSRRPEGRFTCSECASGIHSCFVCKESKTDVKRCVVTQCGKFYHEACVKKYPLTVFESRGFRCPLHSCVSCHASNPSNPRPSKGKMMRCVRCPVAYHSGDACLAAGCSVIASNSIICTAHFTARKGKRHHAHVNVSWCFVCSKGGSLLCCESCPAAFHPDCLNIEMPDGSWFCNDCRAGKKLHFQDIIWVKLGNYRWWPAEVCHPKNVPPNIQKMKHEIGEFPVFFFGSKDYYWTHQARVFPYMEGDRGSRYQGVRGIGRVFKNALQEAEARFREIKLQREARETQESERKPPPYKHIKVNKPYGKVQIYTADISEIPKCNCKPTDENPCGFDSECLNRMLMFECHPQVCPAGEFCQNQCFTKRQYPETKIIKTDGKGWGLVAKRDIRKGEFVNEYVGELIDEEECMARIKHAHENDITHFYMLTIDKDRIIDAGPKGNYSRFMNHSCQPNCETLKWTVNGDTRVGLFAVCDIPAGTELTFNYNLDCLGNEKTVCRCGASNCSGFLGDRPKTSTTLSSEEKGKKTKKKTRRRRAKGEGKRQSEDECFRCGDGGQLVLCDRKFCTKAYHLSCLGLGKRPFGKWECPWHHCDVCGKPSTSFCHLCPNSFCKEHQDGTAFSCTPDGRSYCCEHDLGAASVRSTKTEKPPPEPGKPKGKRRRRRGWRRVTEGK

[7] = biological target: T3, Protein RecA (Mycobacterium tuberculosis, UniProt P9WHJ3); assay: Fluorescence Cell-Free Homogeneous Dose Retest to Identify Inhibitors of RecA-Intein Splicing Activity. [Related pubchem assays (depositor defined):AID2097, AID2223, AID489010, AID492950]; assay type: functional
T3 sequence (P9WHJ3 whole entry): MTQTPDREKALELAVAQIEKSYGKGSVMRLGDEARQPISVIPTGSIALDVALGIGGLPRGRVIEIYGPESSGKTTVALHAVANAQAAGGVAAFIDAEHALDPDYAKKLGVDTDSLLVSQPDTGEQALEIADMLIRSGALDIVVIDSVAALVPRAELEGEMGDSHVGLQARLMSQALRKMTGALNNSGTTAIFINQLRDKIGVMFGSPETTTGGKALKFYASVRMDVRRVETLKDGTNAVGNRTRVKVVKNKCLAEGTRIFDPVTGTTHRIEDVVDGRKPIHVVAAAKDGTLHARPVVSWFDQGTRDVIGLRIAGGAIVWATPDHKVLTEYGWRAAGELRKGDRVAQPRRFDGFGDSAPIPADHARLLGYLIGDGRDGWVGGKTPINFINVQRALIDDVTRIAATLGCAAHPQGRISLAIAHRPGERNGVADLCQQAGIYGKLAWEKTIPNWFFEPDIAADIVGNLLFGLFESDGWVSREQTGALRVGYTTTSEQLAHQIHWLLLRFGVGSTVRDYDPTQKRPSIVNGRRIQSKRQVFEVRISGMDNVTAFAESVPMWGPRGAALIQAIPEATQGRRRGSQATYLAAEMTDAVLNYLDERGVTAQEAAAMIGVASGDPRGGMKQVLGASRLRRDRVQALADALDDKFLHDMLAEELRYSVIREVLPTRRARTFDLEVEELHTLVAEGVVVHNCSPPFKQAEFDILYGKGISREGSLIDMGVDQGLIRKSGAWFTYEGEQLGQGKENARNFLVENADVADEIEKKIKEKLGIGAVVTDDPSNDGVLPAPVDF

[8] = biological target: T4, Heat shock factor protein 1 (Mus musculus, UniProt P38532); assay: HSF1 potentiators in luciferase reporter cells, confirmation, cell-based, NIH3T3, luminescence, dose retest (AID 435004); assay type: functional;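 also: stress induced by proteasome inhibitor MG132 added 30 min after compound; luciferase reporter driven by HSF1 response element in NIH3T3 cells; actives raise luminescence as potentiators of the MG132 stress response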
T4 sequence (P38532 whole entry): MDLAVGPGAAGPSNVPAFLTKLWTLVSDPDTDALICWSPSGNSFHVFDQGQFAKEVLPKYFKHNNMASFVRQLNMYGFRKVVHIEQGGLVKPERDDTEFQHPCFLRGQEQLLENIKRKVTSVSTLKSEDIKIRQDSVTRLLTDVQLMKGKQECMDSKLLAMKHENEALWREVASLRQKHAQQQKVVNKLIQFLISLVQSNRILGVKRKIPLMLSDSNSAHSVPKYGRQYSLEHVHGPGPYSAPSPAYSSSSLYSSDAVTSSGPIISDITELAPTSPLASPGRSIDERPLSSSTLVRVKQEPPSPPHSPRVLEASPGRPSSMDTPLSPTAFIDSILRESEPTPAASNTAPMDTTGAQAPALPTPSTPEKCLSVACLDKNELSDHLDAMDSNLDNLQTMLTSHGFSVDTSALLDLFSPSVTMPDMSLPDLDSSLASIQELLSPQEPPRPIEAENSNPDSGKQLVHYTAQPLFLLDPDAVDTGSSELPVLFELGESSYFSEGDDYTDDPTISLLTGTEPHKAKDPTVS

[9] = A375 melanoma cell viability loss, dose response, counter-screen for MITF inhibitor project, CellTiter-Glo luminescence, dry powder, set 4 (AID 624364); assay type: functional, cell-based; conditions: A-375;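 also: A375 melanoma cells are MITF independent so this is a counter screen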
[10] = A375 melanoma cell cytotoxicity, dose response, counter-screen for MITF inhibitor project, CellTiter-Glo luminescence, dry powder, set 2 (AID 624489); assay type: functional, cell-based; conditions: A-375;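 also: actives are compounds lowering A375 viability meaning general cytotoxicity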
[11] = cytotoxicity in OVCAR8 ovarian cancer cells, dose response, PAX8 project, cell-based, plate reader, dry powder samples (AID 743197); assay type: functional; conditions: OVCAR-8
[12] = NIH:OVCAR-3 ovarian cancer cell cytotoxicity, dose response, PAX8 inhibitor project, plate reader, dry powder samples (AID 743044); assay type: functional, cell-based
[13] = A2780 ovarian cancer cell cytotoxicity, dose response, cytotoxicity control, plate reader, dry powder samples (AID 743046); assay type: functional, cell-based
[14] = biological target: Paired box protein Pax-8 (Homo sapiens, UniProt Q06710); assay: inhibitors of PAX8-driven TPO luciferase reporter, dose response, RMG-I cells, cherry-pick (AID 687027); assay type: functional, cell-based;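 also: luciferase reporter driven by Pax8 target thyroperoxidase promoter measured by SteadyGlo luminescence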
[15] = biological target: Induced myeloid leukemia cell differentiation protein Mcl-1 (Homo sapiens, UniProt Q07820); assay type: functional
[16] = biological target: Large T antigen (Simian virus 40, UniProt P03070); assay type: functional, Betapolyomavirus macacae;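 also: Confirmatory-stage PubChem screen for compounds that inhibit SV40 T antigen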
[17] = biological target: T5, Aminopeptidase N (Plasmodium falciparum FcB1/Columbia, UniProt O96935); assay: P. falciparum M1AAP inhibitors, biochemical, fluorogenic H-Leu-NHMec substrate, 1536-well (AID 1445); set-up: species or system Plasmodium falciparum 3D7, 3D7
T5 sequence (O96935 whole entry): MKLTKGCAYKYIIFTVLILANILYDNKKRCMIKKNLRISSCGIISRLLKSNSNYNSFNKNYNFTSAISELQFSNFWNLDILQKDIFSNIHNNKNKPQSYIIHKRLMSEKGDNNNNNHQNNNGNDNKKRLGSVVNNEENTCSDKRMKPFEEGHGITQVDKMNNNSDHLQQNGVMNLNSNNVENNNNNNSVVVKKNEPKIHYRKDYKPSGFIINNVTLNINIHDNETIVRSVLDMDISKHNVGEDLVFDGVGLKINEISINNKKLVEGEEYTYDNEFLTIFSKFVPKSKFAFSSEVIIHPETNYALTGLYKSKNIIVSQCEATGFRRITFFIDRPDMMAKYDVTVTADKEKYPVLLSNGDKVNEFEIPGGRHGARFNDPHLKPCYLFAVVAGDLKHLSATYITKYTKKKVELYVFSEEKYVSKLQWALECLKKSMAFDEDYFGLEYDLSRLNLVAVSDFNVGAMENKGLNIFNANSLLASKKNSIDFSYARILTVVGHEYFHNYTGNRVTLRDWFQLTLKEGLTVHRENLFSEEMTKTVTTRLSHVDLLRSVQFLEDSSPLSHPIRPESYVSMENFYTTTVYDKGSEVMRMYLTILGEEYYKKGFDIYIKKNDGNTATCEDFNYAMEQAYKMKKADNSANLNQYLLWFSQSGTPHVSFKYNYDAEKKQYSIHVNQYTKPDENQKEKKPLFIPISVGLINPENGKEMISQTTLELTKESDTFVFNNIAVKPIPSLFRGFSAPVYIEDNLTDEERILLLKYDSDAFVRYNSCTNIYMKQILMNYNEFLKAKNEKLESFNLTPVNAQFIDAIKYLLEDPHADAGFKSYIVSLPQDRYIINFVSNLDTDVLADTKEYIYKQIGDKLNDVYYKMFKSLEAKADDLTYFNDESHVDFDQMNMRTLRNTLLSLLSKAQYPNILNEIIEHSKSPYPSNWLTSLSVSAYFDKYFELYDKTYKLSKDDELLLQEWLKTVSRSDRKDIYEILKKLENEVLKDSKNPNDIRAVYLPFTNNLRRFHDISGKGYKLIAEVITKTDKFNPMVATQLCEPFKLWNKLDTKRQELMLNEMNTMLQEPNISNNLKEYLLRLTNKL

Chain of Paired box protein Pax-8 (Q06710 whole entry): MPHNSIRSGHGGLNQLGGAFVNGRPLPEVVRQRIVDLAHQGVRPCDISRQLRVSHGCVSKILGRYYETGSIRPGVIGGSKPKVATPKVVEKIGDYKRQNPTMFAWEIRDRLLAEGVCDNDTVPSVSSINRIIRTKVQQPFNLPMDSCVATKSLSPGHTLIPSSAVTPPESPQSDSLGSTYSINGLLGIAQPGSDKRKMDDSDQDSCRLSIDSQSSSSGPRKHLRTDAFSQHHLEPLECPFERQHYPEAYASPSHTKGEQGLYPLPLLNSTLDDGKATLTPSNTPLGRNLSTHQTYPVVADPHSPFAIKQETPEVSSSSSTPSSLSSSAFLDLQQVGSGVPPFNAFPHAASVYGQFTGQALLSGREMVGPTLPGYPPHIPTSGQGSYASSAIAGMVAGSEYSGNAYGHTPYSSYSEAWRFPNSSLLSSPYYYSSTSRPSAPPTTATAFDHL
Chain of Induced myeloid leukemia cell differentiation protein Mcl-1 (Q07820 whole entry): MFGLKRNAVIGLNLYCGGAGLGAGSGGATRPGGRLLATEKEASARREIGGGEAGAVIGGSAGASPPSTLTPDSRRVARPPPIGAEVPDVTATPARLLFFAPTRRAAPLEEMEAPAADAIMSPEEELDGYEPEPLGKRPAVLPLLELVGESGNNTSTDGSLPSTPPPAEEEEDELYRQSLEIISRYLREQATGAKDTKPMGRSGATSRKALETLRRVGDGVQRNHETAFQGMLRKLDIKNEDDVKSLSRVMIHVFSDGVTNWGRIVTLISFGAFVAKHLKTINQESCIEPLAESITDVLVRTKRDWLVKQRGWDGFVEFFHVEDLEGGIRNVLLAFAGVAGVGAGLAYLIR
Chain of Large T antigen (P03070 whole entry): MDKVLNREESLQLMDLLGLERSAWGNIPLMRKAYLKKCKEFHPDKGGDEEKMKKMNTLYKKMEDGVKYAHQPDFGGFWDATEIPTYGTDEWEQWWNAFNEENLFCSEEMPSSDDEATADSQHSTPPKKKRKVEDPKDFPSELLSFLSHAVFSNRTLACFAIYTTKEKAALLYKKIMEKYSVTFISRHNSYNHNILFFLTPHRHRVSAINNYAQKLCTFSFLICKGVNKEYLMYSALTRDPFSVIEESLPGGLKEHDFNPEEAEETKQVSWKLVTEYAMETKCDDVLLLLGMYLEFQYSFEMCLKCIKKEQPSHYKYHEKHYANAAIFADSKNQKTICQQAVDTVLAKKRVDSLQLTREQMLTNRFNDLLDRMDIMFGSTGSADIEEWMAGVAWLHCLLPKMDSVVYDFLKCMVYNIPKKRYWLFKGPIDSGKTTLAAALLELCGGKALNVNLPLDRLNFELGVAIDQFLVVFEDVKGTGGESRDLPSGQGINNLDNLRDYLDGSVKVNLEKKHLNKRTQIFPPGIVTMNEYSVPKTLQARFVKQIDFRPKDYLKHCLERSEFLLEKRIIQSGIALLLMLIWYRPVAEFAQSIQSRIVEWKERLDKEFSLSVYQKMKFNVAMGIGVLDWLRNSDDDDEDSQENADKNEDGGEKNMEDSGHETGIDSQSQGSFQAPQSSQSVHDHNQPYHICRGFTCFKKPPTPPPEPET

SMILES: CCOC(=O)CSc1nc(-c2ccccc2)nc2ccccc12
- IC50 [1]: 1.73 µM (active)
- IC50 [2]: > 138 µM (inactive)

SMILES: Cc1ccc(-c2noc(-c3ccccc3Br)n2)cc1
- EC50 [3]: > 67.5 µM (inactive)
- EC50 [4]: > 67.5 µM (inactive)

SMILES: CCOC(=O)CSc1nc(COc2ccccc2)nc2ccccc12
- IC50 [1]: 8.25 µM (active)
- IC50 [2]: > 138 µM (inactive)

SMILES: Cc1ccc(/C=N/NC(=O)c2ccoc2C)s1
- EC50 [5]: > 67.6 µM (inactive)

SMILES: OCCN=C(S)Nc1ccc2nsnc2c1
- AC50 [6]: 10.5 µM (active)
- EC50 [7]: 26 µM (active)

SMILES: CC1(C)Cc2ccccc2-c2[nH]c(=S)[nH]c(=O)c21
- IC50 [1]: 4.55 µM (active)

SMILES: Cc1ccc2oc(-c3cccc(N)c3)nc2c1
- EC50 [8]: > 260 µM (inconclusive)
- EC50 [5]: > 67.6 µM (inactive)

SMILES: CC(=O)NC1=C(c2ccc(Oc3ccccc3)cc2)C(=O)c2ccccc2C1=O
- AC50 [9]: 59 µM (active)
- AC50 [10]: 31.2 µM (active)

SMILES: CC1(C)Cc2ccccc2-c2nc(S)nc(O)c21
- IC50 [2]: > 138 µM (inactive)

SMILES: CCN(CC)CCCNC1=C(N(C)C(C)=O)C(=O)c2ccccc2C1=O
- AC50 [9]: 5.33 µM (active)
- AC50 [10]: 2.91 µM (active)

SMILES: Cc1ccccc1S(=O)(=O)N1CC[C@@H]2[C@H](CO)Nc3ccc(-c4cccc(F)c4)cc3[C@@H]21
- AC50 [11]: 46.7 µM (active)
- AC50 [12]: 53.8 µM (active)
- AC50 [13]: 0.711 µM (active)
- AC50 [14]: 13.6 µM (active)

SMILES: COc1cc(/C=C2/C(=N)N3N=C(c4ccc(C)cc4)SC3=NC2=O)ccc1O
- IC50 [15]: 3.26 µM (active)
- IC50 [16]: 7.62 µM (active)
- EC50 [5]: > 67.5 µM (inactive)
- IC50 [17]: 66.1 µM (active)
